Data from patent US20230398194A1 (priority 2016, published 2023).

B1: P2A: carbapenemase, beta-lactamase polypeptide of SEQ ID NO: 6 (protein)
chain: ETGTISISQLNKNVWVHTELGYFNGEAVPSNGLVLNTSKGLVLVDSSWDNKLTKELIEMVEKKFQKRVTDVIITHAHADRIGGITALKERGIKAHSTALTAELAKNSGYEEPLGDLQTITSLKFGNTKVETFYPGKGHTEDNIVVWLPQYQILAGGCLVKSAEAKDLGNVADAYVNEWSTSIENVLKRYGNINSVVPGHGEVGDKGLLLHTLDLLK

Columns and labels:
porcine gut microbiome = assay: Piglet gut microbiome study: fecal resistome by whole genome shotgun metagenomics, ceftriaxone with or without SYN-004 (ribaxamase); assay type: in vivo, pig; settings: for blaOXA genes (extended spectrum OXA class D beta-lactamases), level in fecal microbiome / change in the mean of relative gene frequencies of acrE, baeR, emrY, mdtD, mdtN, pbp2, pbp4, AmpC (FIG. 3) / mdtD gene levels / AmpC gene frequencies / Aminoglycoside_strA gene level (FIG. 4A) / Tetracycline_tet39 gene level (FIG. 4B): CRO alone vs CRO+ribaxamase; for blaOXA genes (extended spectrum OXA class D beta-lactamases), level in fecal microbiome: 5 piglets per cohort; for AmpC gene frequencies: by Day 4, after an increase from Day −7 to Day −4 in both cohorts; for abundance of antibiotic resistance genes in the porcine gut microbiome (overall conclusion): ceftriaxone treatment alone vs with SYN-004 (ribaxamase); for Aminoglycoside_strA gene level (FIG. 4A) / Tetracycline_tet39 gene level (FIG. 4B): day 4 after antibiotic treatment, 5 animals per cohort
Protocol: See Table 2 and FIG. 1 for study design and timeline. Animals were acclimated for 14 days prior to study initiation. Ceftriaxone (CRO) was administered daily for 7 days and animals that received SYN-004 (ribaxamase) starting the day before antibiotic treatment for 9 consecutive days. Feces were collected on Study Days −7, −4, 4, and 8. Fecal DNA was isolated and subjected to whole genome shotgun metagenomics analyses. The community resistome, the collection of antibiotic resistance genes in the microbiome, was identified by comparison to a curated antibiotic resistance gene database.
Two groups of 5 normal piglets each were used in this study. Group 1 animals were treated with ceftriaxone (IV, 1× per day, 50 mg/kg) for 7 consecutive days and Group 2 animals received ceftriaxone (IV, 1× per day, 50 mg/kg) for 7 consecutive days and SYN-004 (ribaxamase, orally, 4× per day, 75 mg/dose) for 9 consecutive days starting the day before ceftriaxone delivery.
Normal piglets (2 months old, approximately 50 lbs) were acclimated for 14 days prior to study initiation. Two cohorts of 5 animals each were used for this study, Group 1 received ceftriaxone alone and Group 2 received ceftriaxone and SYN-004 (ribaxamase), as indicated in Table 2. Stool was collected at 4 time points, two prior to treatment, at Study Days −7 and −4, and two during treatment at Study Day 4 and 8.
Total DNA was isolated from fecal specimens, using the MOBIO Power-Soil® DNA Isolation Kit (Qiagen, Germantown, MD), following the manufacturer's instructions. Each DNA sample was normalized in 3-18 uL of nuclease-free water for a final concentration of 0.5 ng/uL using the Biomek FX liquid handler (Beckman Coulter Life Sciences, Brea, CA). Libraries were constructed using the Nextera XT Library Prep Kit (illumine, San Diego, CA). For each sample, an input of 0.5 ng was used in the tagmentation reaction, followed by 13 cycles of PCR amplification using Nextera i7 and i5 index primers and 2× KAPA master mix per the modified Nextera XT protocol. The PCR products were purified using 1.0× speed beads and eluted in 15 ul of nuclease-free water. The final libraries were quantified by PicoGreen fluorometric assay (100× final dilution) and the concentrations were in the range of 0.1-4.0 ng/ul. The libraries were pooled, based on concentration determined by PicoGreen and loaded onto a high sensitivity (HS) chip run on the Caliper LabChipGX (Perkin Elmer, Waltham, MA). The base pair size reported was in the range of 301-680 bp. Each pool of 64 was run across 8 lanes of an Illumina HiSeq v3 flowcell, targeting 100 bp paired end reads per sample.
Briefly, raw, unassembled shotgun sequence reads were probed against the CosmosID, Inc. curated antibiotic resistance gene database.

canine gut microbiome = assay: Canine fecal resistome analysis, oral amoxicillin with or without SYN-004; assay type: in vivo, dog; settings: for abundance of antibiotic resistance genes in the canine gut microbiome (overall conclusion): oral amoxicillin exposure alone vs with SYN-004; for change in the mean of relative gene frequencies of selected resistance genes (FIG. 9): amoxicillin alone vs amoxicillin+SYN-004
Protocol: To determine if SYN-004 affected the abundance of antibiotic resistance genes, resistome analyses were performed.
Several genes were selected for further analysis. For each selected gene, the change in the mean of relative gene frequencies from pretreatment to post treatment was compared in the amoxicillin alone or the amoxicillin+SYN-004 cohorts (FIG. 9).

fecal microbiomes = settings: for effect on microbiota populations in the GI tract (conclusion): oral amoxicillin alone vs with SYN-004; for position of post treatment fecal microbiomes in Principal Coordinate Analysis (Bray-Curtis, FIG. 7): post treatment vs pretreatment cluster, amoxicillin alone vs amoxicillin+SYN-004, 5 dogs per cohort
Protocol: The ability of a delayed-release formulation of SYN-004 (ribaxamase), to mitigate the propagation of antibiotic resistance genes caused by exposure of the gut microbiota to oral amoxicillin was evaluated in normal, seven month old female beagles. Animals were acclimated for 24 days prior to dosing initiation. Animals (n=10, 5 animals per cohort) received oral amoxicillin (40 mg/kg/dose, reconstituted in apple juice) three times a day+/−one capsule of SYN-004 (10 mg) for 5 days, with the last dose on the morning of day 6. The animals received 16 total doses of amoxicillin+/−SYN-004. Fecal samples were collected prior to antibiotic dosing and after the last dose. Blood was collected after the first antibiotic dose on day 1 and after the last dose on day 6. On each blood collection day, blood was collected from each animal at seven time points, 0.5, 1, 2, 3, 4, 6, and 8 hrs. Amoxicillin serum levels were measured using a validated liquid chromatography (LC) method with tandem mass spectrometry detection (LC/MS/MS). DNA isolated from fecal samples was subjected to whole genome shotgun sequencing and metagenomics analyses.
DNA isolated from the fecal samples was subjected to whole genome sequencing and analyzed using the CosmosID, Inc. bioinformatics software package. Analyses included identification of the microbiota species present in the fecal microbiomes and identification of antibiotic-resistance genes based on the percentage gene coverage for each gene and quantified by determining the frequency (%) of each gene in each sample.
To determine if SYN-004 protected the fecal microbiomes from damage caused by oral amoxicillin, the microbiome bacterial populations were compared using a three coordinate Principal Coordinate Analysis (CosmosID, Inc. bioinformatics software). Distance between points indicates degree of difference in sample diversity with points close together more similar.

[1] = Amoxicillin serum levels (LC/MS/MS) in dogs given oral amoxicillin with or without SYN-004; assay type: in vivo, dog; settings: for amoxicillin serum levels (area under the curve), amoxicillin alone vs amoxicillin+SYN-004: amoxicillin 40 mg/kg/dose oral TID +/- SYN-004 10 mg capsule
Protocol: Amoxicillin serum levels were plotted for each group for each blood collection day as mean+standard deviation for each time point. Area under the curve was calculated for each group for each bleed day (day 1 and day 6) and were compared statistically using one-way ANOVA with Dunnett's multiple comparison tests (Graph Pad Prism 7.03 software).

[2] = ertapenem 30 mg/kg IV once a day; P2A 50 mg PO 4 times a day; expected result
Protocol: Animals (n=16, 8 animals per cohort) receive ertapenem (30 mg/kg/dose, IV, once a day for 4 days)+/−one capsule of P2A (50 mg, PO, 4 times a day). The P2A is started the day before antibiotic treatment and continues with one final dose the morning of day 5. […] Blood is collected on day 3 after 3 ertapenem doses. Blood is collected at 3 timepoints, 1 hr, 2 hrs, and 3 hrs after ertapenem.

Row | Molecule | blaOXA genes (extended spectrum OXA class D beta-lactamases), level in fecal microbiome (porcine gut microbiome; Day 4) | change in the mean of relative gene frequencies of acrE, baeR, emrY, mdtD, mdtN, pbp2, pbp4, AmpC (FIG. 3) (porcine gut microbiome; Day −4 to Day 4) | mdtD gene levels (porcine gut microbiome; Day −4 to Day 4) | AmpC gene frequencies (porcine gut microbiome) | abundance of antibiotic resistance genes in the porcine gut microbiome (overall conclusion) (porcine gut microbiome) | Aminoglycoside_strA gene level (FIG. 4A) (porcine gut microbiome) | Tetracycline_tet39 gene level (FIG. 4B) (porcine gut microbiome) | abundance of antibiotic resistance genes in the canine gut microbiome (overall conclusion) (canine gut microbiome) | change in the mean of relative gene frequencies of selected resistance genes (FIG. 9) (canine gut microbiome; pretreatment to post treatment) | effect on microbiota populations in the GI tract (conclusion) (fecal microbiomes) | position of post treatment fecal microbiomes in Principal Coordinate Analysis (Bray-Curtis, FIG. 7) (fecal microbiomes) | further results
1 | CO/N=C(\C(=O)N[C@@H]1C(=O)N2C(C(=O)O)=C(CSc3nc(=O)c(=O)[nH]n3C)CS[C@H]12)c1csc(N)n1 [Ceftriaxone, reference compound] | present at high levels in two of five CRO animals | increased for each gene | doubled | continued to increase | increased the abundance of antibiotic resistance genes | detected at high levels in 4 of 5 animals | detected at high levels in 4 of 5 animals |  |  |  |  | blaCTX-M_82 or blaCFX_A4 genes (class A serine beta-lactamases), level in fecal microbiome (porcine gut microbiome; Day 4, CRO alone): detected at Day 4 at high levels in two of the CRO animals; abundance of antibiotic resistance genes in the fecal microbiome (heatmaps, FIG. 2A, 2B) (porcine gut microbiome; post-treatment Day 4, CRO 50 mg/kg IV 1x per day alone vs CRO+ribaxamase 75 mg oral QID): higher abundance of antibiotic resistance genes
2 | CC1(C)S[C@@H]2[C@H](NC(=O)[C@H](N)c3ccc(O)cc3)C(=O)N2[C@H]1C(=O)O [amoxicillin] |  |  |  |  |  |  |  | increased the abundance of antibiotic resistance genes | increased for each gene | disrupts the microbiota populations in the GI tract | 4/5 post treatment samples were plotted far from the pretreatment cluster | abundance of antibiotic resistance genes, pretreatment to post treatment (canine gut microbiome; amoxicillin alone compared to amoxicillin+SYN-004 cohort): higher abundance of antibiotic resistance genes post treatment; TEM and OXA beta-lactamase genes (e.g. TEM-113, OXA-136, FIG. 8), detection (canine gut microbiome; not detected prior to amoxicillin exposure): detected only at day 6 in the amoxicillin alone cohort; marA gene levels (canine gut microbiome; pretreatment to post treatment, amoxicillin alone): almost doubled
3 | SYN-004: beta-lactamase with the amino acid sequence of SEQ ID NO: 1; D276N mutant of P1A | absent or observed at lower frequencies | decreased for each gene in the CRO+ribaxamase group except for pbp2 | reduced | decreased to levels similar to the Day −7 frequencies | attenuated this enrichment process | remained low or absent in all animals | only one animal in the CRO+ribaxamase cohort was identified with a high level | attenuated this enrichment process | decreased for each gene | can mitigate the damage caused by oral amoxicillin | also clustered with the pretreatment samples | pbp2 relative gene frequency change (porcine gut microbiome; Day −4 to Day 4, CRO+ribaxamase): increased only slightly above baseline; antibiotic resistance gene frequencies in the presence of ribaxamase (porcine gut microbiome; with ceftriaxone, vs pre-antibiotic treatment levels): reduced or maintained at pre-antibiotic treatment levels; marA gene levels, reduction (canine gut microbiome; pretreatment to post treatment, amoxicillin+SYN-004 cohort): approximately 50%; antibiotic resistance gene frequencies in the presence of SYN-004 (canine gut microbiome; with oral amoxicillin): reduced; amoxicillin serum levels (area under the curve), amoxicillin alone vs amoxicillin+SYN-004 ([1]; day 1, p=0.703): not significantly different; amoxicillin serum levels (area under the curve), amoxicillin alone vs amoxicillin+SYN-004 ([1]; day 6, p=0.098): not significantly different; interference with amoxicillin systemic absorption from the gastrointestinal tract ([1]; delayed release SYN-004 formulation, dog): did not interfere
4 | B1 |  |  |  |  |  |  |  |  |  |  |  | ertapenem serum levels, ertapenem alone vs ertapenem+P2A [2]: not expected to be different
